Data taken from patent US8207121B2, “Sensitization to another anticancer therapy and/or amelioration of a side effect of another anticancer therapy by treatment with a GST-activated anticancer compound” (Telik, Inc., priority 2004, dated 2012).
Where a name gives a salt, the structure may show the parent alone. Read-outs that look alike come from different tables or passages of the source.

Experiments:
GST M1a-1a = target: T1, GST M1a-1a (Homo sapiens, UniProt P09488); conditions: cited from earlier work
T1 sequence (P09488 1-218): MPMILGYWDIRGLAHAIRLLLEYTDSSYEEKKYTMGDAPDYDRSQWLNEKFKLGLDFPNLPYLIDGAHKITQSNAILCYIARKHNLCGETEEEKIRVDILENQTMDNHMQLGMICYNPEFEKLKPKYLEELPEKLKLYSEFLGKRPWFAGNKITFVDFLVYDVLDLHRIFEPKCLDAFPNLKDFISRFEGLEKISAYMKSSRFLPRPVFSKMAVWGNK

GST P1-1 = GST P1-1 (Homo sapiens, UniProt P09211); conditions: cited from earlier work
GST A1-1 = target: T2, GST A1-1 (Homo sapiens, UniProt P08263); conditions: cited from earlier work
T2 sequence (P08263 1-222): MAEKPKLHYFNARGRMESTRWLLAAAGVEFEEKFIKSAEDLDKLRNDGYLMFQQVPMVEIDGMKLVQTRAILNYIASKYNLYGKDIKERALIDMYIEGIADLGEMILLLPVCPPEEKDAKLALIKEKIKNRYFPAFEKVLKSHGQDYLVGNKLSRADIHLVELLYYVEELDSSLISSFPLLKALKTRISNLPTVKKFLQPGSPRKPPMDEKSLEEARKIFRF

[1] = test system: ovarian, breast, non-small cell lung, and colorectal cancers; conditions: cited from earlier work
M7609 xenografts = conditions: xenografts engineered to have high, medium, and low GST P1-1; cited from earlier work
[2] = Clinical observation: side effects of carboplatin therapy in ovarian cancer patients; assay type: in vivo, human
Excerpt: Ovarian cancer patients treated with carboplatin-containing regimens underwent repeated cycles of alopecia corresponding to the administration of the carboplatin.

OVCAR-PR cells = test: Cytotoxicity assay (CellTiter-Glo), paclitaxel-resistant OVCAR-PR; assay type: cell-based, human; conditions: for IC50: Homo sapiens; for increase in resistance: IC50 in OVCAR-PR cells versus OVCAR-3 cells
Description: (§1) A paclitaxel-resistant derivative cell line OVCAR-PR was developed from the human ovarian cancer cell line OVCAR-3 by growing OVCAR-3 cells in gradually increasing concentrations (up to 5 nM) of paclitaxel. A canfosfamide-modified derivative cell line OVCAR-TLK was developed by growing OVCAR-3 cells in gradually increasing concentrations (up to 6.5 μM) of canfosfamide. To maintain the phenotypes of the cell lines, the cells were treated with the compounds at weekly intervals. Cells were grown in compound-free media for 24 hours before any experiments.
(§2) Cytotoxicity assay. Log-phase cells were seeded in 96-well plates and incubated with the diluted compound or solvent for 2-3 doubling times. The extent of cell growth was quantitated using the CellTiter-Glo assay (Promega Corporation, Madison, Wis., U.S.A.), used in accordance with the assay kit directions. The amount of ATP in the lysate, which corresponds to the number of viable cells, was quantitated using a luminometer. All assays were conducted in triplicate wells, with solvent control. The extent of cell growth was expressed as a percentage of the signal from the solvent control wells. The mean of the triplicate wells was computed and IC50 determined using PrismGraph.

OVCAR-3 cells = test: Cytotoxicity assay (CellTiter-Glo), OVCAR-3; assay type: cell-based; conditions: Homo sapiens
Description: Cancer cell line. The human cancer cell line OVCAR-3 (ovarian adenocarcinoma) was obtained from the National Cancer Institute, Bethesda, Md., U.S.A.
as §1, §2

[3] = test system: cell culture and tumor biopsies; conditions: cited from earlier work
OVCAR-TLK cells = test: Cytotoxicity assay (CellTiter-Glo), canfosfamide-modified OVCAR-TLK; assay type: cell-based, human
Description: as §1, §2
Cell doubling time. 1.5×10^4 cells were seeded in a 25-mL flask. The cells were grown for four days and the number of viable cells was determined by Trypan Blue staining and manual counting using a hemocytometer. The assay was conducted in triplicate at each time point. The times for two cell doublings for OVCAR-3 and OVCAR-TLK cells were approximately 3.5 and 5.5 days, respectively.

[4] = test system: MCF-7 human breast carcinoma cell line selected for resistance to cyclophosphamide; conditions: line overexpresses GST P1-1; cited from earlier work
[5] = test system: M6709 human colon carcinoma cell line selected for resistance to doxorubicin; conditions: line overexpresses GST P1-1; cited from earlier work

Chain of GST P1-1 (P09211 2-210 limits assumed): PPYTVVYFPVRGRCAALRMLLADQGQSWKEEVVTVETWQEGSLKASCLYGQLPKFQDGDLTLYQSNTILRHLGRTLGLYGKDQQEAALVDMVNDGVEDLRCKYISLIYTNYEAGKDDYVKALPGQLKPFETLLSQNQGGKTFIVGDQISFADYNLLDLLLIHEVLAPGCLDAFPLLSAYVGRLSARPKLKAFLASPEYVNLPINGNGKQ

N[C@@H](CCC(=O)N[C@@H](CS(=O)(=O)CCOP(=O)(N(CCCl)CCCl)N(CCCl)CCCl)C(=O)NCC(=O)O)C(=O)O [TLK231, L-γ-glutamyl-3-[[2-[[bis[bis(2-chloroethyl)amino]phosphinyl]oxy]ethyl]sulfonyl]-L-alanyl-glycine]
activation by GST isoenzyme (GST M1a-1a): activated

N[C@@H](CCC(=O)N[C@@H](Cc1cccc(S(=O)(=O)CCOP(=O)(N(CCCl)CCCl)N(CCCl)CCCl)c1)C(=O)NCC(=O)O)C(=O)O [TLK(296, L-γ-glutamyl-3-[[2-[[bis[bis(2-chloroethyl)amino]phosphinyl]oxy]ethyl]sulfonyl]-L-phenylalanyl-glycine]
activation by GST isoenzyme (GST P1-1): activated

C[C@@](NC(=O)[C@H](CS(=O)(=O)CCOP(=O)(N(CCCl)CCCl)N(CCCl)CCCl)NC(=O)CC[C@H](N)C(=O)O)(C(=O)O)c1ccccc1 [TLK(303, L-γ-glutamyl-3-[[2-[[bis[bis(2-chloroethyl)-amino]phosphinyl]oxy]ethyl]sulfonyl]-L-alanyl-2-phenyl-(2S)-alanine]
activation by GST isoenzyme (GST A1-1): activated

N[C@@H](CCC(=O)N[C@@H](CS(=O)(=O)CCOP(=O)(N(CCCl)CCCl)N(CCCl)CCCl)C(=O)N[C@@H](C(=O)O)c1ccccc1)C(=O)O [canfosfamide hydrochloride]
hematological toxicity in patients ([1]; treated patients): very low incidence of clinically significant hematological toxicity
potency versus level of GST P1-1 (M7609 xenografts): positively correlated with the level of GST P1-1
recurrence of alopecia with carboplatin treatment ([2]; carboplatin AUC 5 or 6 mg/mL·min with canfosfamide hydrochloride 500, 750 and 960 mg/m^2): did not experience the same recurrence of alopecia
hematologic and neurologic side effects of carboplatin ([2]; carboplatin in combination with canfosfamide hydrochloride): similarly ameliorated

N[C@@H](CCC(=O)N[C@@H](CS(=O)(=O)CCOP(=O)(N(CCCl)CCCl)N(CCCl)CCCl)C(=O)N[C@@H](C(=O)O)c1ccccc1)C(=O)O [canfosfamide, L-γ-glutamyl-3-[[2-[[bis[bis(2-choroethyl)-amino]phosphinyl]oxy]ethyl]sulfonyl]-L-alanyl-2-phenyl-(2R)-glycine]
activation by GST isoenzyme (GST P1-1): activated
IC50 (OVCAR-PR cells): 1600 nM
increase in resistance (OVCAR-PR cells): 1.2 fold
activation by GST isoenzyme (GST A1-1): activated
IC50 (OVCAR-3 cells; OVCAR-3): 1300 nM
clinical activity ([1]; colorectal and breast cancer): single agent antitumor activity
clinical activity ([1]; patients with non-small cell lung cancer and ovarian cancer): significant single agent antitumor activity and improvement in survival
cross-resistance to platinum, paclitaxel, doxorubicin and gemcitabine [3]: non-cross-resistant
sensitivity to canfosfamide, OVCAR-3 versus OVCAR-TLK (OVCAR-TLK cells; treated for approximately two doubling times): approximately equally sensitive
potency versus parental cell line [4]: more potent
potency versus parental cell line [5]: more potent

CC(=O)O[C@H]1C(=O)[C@@]2(C)[C@H]([C@H](OC(=O)c3ccccc3)[C@]3(O)C[C@H](OC(=O)[C@H](O)[C@@H](NC(=O)c4ccccc4)c4ccccc4)C(C)=C1C3(C)C)[C@]1(OC(C)=O)CO[C@@H]1C[C@@H]2O [paclitaxel]
IC50 (OVCAR-PR cells; OVCAR-PR cells, read-out: IC50): 49 nM
increase in resistance (OVCAR-PR cells): more than 35 fold
decrease of IC50 for paclitaxel after canfosfamide pretreatment (OVCAR-PR cells; OVCAR-PR cells first treated overnight with 4 μM canfosfamide): approximately 3 fold
IC50 (OVCAR-3 cells; OVCAR-3 cells, read-out: IC50): 1.3 nM
IC50s for paclitaxel, OVCAR-3 versus OVCAR-TLK (OVCAR-TLK cells; equal treatment times): approximately the same
IC50 for paclitaxel lower in OVCAR-TLK than in OVCAR-3 cells (OVCAR-TLK cells; treatment times adjusted for doubling times (approximately two doubling times)): about 2 fold
